Experimental findings from BindingDB's records for doi:10.1021/jm00106a047 (Purdue University, 1991) are described below.

By IC50 is commonly meant the concentration at which inhibition is half-maximal. Read a low IC50 as greater potency.

For this test, the target named is Tyrosine-protein kinase Lck (Bos taurus). In words: Ability to inhibit protein-tyrosine kinase activity of p56lck (isolated from bovine thymus) in vitro.
In turn, `CCOC(=O)CC(=O)c1ccccc1O` gave an IC50 greater than 2 mM.

Turning to `COC(=O)c1c(-c2ccc(N)cc2)oc2ccccc2c1=O`, the midpoint of inhibition, the IC50, lay at 0.81 mM.

On to `COc1ccc2c(=O)c(C(=O)O)c(-c3ccc([N+](=O)[O-])cc3)oc2c1`, for which the IC50 was greater than 2 mM.

Compound `COc1ccc2c(=O)c(C(=O)O)c(-c3ccc(O)cc3)oc2c1` yielded a 50% inhibitory concentration (IC50) of 1.03 mM.

The compound `COC(=O)c1c(-c2ccc([N+](=O)[O-])cc2)oc2cc(OCc3ccccc3)cc(OCc3ccccc3)c2c1=O` showed a 50% inhibitory concentration (IC50) greater than 2 mM.

For the compound `COC(=O)c1c(-c2ccc(O)cc2)oc2cc(OC)ccc2c1=O`, the IC50 is greater than 2 mM.

In turn, `O=c1cc(-c2ccc([N+](=O)[O-])cc2)oc2cc(O)ccc12` came in with an IC50 greater than 2 mM.

Compound `COc1cc(-c2oc3ccccc3c(=O)c2C(=O)O)cc(OC)c1OC` displayed an IC50 greater than 2 mM.

Turning to `COC(=O)c1c(-c2ccc(NC(C)=O)cc2)oc2ccc(OC)cc2c1=O`, the concentration for half-maximal inhibition (IC50) was greater than 2 mM.

`COC(=O)c1c(-c2ccc(Br)cc2)oc2ccccc2c1=O` yielded a 50% inhibitory concentration (IC50) greater than 2 mM.

Compound `COC(=O)CC(=O)c1cc(OC)ccc1O` yielded an IC50 greater than 2 mM.

As to `O=C(O)c1c(-c2ccc([N+](=O)[O-])cc2)oc2cc(O)cc(=O)c-2c1O`, the 50% inhibitory concentration (IC50) was greater than 2 mM.

`COc1cc(OC)cc(-c2oc3ccccc3c(=O)c2C(=O)O)c1` showed an IC50 greater than 2 mM.

`O=c1cc(-c2ccc([N+](=O)[O-])cc2)oc2ccc(O)cc12` displayed an IC50 greater than 2 mM.

`COC(=O)c1c(-c2cc(OC)cc(OC)c2)oc2ccccc2c1=O` displayed an IC50 greater than 2 mM.

`COC(=O)c1c(-c2cc(OC)c(OC)c(OC)c2)oc2ccccc2c1=O` returned an IC50 greater than 2 mM.

The compound `COC(=O)c1c(-c2ccc(NC(=O)c3cc(OC)c(OC)c(OC)c3)cc2)oc2ccccc2c1=O` showed a 50% inhibitory concentration (IC50) greater than 2 mM.

`COC(=O)CC(=O)c1ccccc1O` gave a half-maximal inhibitory concentration (IC50) greater than 2 mM.

For the compound `O=C(O)c1c(-c2ccc(Br)cc2)oc2ccccc2c1=O`, the half-inhibitory concentration (IC50) was greater than 2 mM.

Compound `COC(=O)CC(=O)c1ccc(OC)cc1O` had a half-inhibitory concentration (IC50) of 1.16 mM. That is a millimolar value.

With `COC(=O)CC(=O)c1ccc(O)c(O)c1O`, the half-inhibitory concentration (IC50) is greater than 2 mM.

In turn, `COC(=O)c1c(-c2ccc(O)cc2)oc2ccccc2c1=O` gave a half-inhibitory concentration (IC50) of 0.439 mM.

For the compound `COC(=O)c1c(-c2ccc(O)cc2)oc2ccc(OC)cc2c1=O`, the half-inhibitory concentration (IC50) was greater than 2 mM.

With `COC(=O)c1c(-c2ccc([N+](=O)[O-])cc2)oc2ccccc2c1=O`, the 50% inhibitory concentration (IC50) is greater than 2 mM.

On to `O=C(O)c1c(-c2ccc(O)cc2)oc2ccccc2c1=O`, for which the half-inhibitory concentration (IC50) is 1.59 mM.

On to `COc1ccc2oc(-c3ccc([N+](=O)[O-])cc3)c(C(=O)O)c(=O)c2c1`, for which the IC50 was greater than 2 mM.

Compound `COC(=O)c1c(-c2ccc(OCc3ccccc3)cc2)oc2ccccc2c1=O` registered a half-maximal inhibitory concentration (IC50) greater than 2 mM.

Turning to `CCOC(=O)CC(=O)c1c(O)cc(OCc2ccccc2)cc1OCc1ccccc1`, the IC50 was greater than 2 mM.

The compound `COc1ccc(-c2oc3ccccc3c(=O)c2C(=O)O)cc1OC` [2-(3,4-Dimethoxy-phenyl)-4-oxo-4H-chromene-3-carboxylic acid] had an IC50 greater than 2 mM.

`COC(=O)c1c(-c2ccc(OCc3ccccc3)cc2)oc2ccc(OC)cc2c1=O` [2-(4-Benzyloxy-phenyl)-6-methoxy-4-oxo-4H-chromene-3-carboxylic acid methyl ester] came in with an IC50 greater than 2 mM.

The compound `Nc1ccc(-c2cc(=O)c3cc(O)ccc3o2)cc1` [2-(4-aminophenyl)-6-hydroxy-4H-chromen-4-one] yielded an IC50 of 0.0012 mM. That is a single-digit micromolar value.

`COc1ccc(-c2oc3ccccc3c(=O)c2C(=O)O)cc1` [2-(4-methoxyphenyl)-4-oxo-4H-chromene-3-carboxylic acid] displayed an IC50 greater than 2 mM.

As for `O=C(O)c1c(-c2ccc([N+](=O)[O-])cc2)oc2ccccc2c1=O` [2-(4-nitrophenyl)-4-oxo-4H-chromene-3-carboxylic acid], the IC50 is greater than 2 mM.

The compound `COc1cc(-c2cc(=O)c3ccccc3o2)cc(OC)c1O` [3',5'-dimethoxy-4'-hydroxyflavone] showed a 50% inhibitory concentration (IC50) of 0.026 mM.

`Nc1ccc(-c2cc(=O)c3ccc(O)cc3o2)cc1` [7-Hydroxy-flavone, 6] registered a 50% inhibitory concentration (IC50) of 0.138 mM.

Consider `COC(=O)c1c(-c2ccc(OC)c(OC)c2)oc2ccccc2c1=O` [methyl 2-(3,4-dimethoxyphenyl)-4-oxo-4H-chromene-3-carboxylate], for which the IC50 is greater than 2 mM.

`COC(=O)c1c(-c2ccc(OC)cc2)oc2ccccc2c1=O` [methyl 2-(4-methoxyphenyl)-4-oxo-4H-chromene-3-carboxylate] showed an IC50 greater than 2 mM.

Compound `COC(=O)c1c(-c2ccc([N+](=O)[O-])cc2)oc2cc(OC)ccc2c1=O` [methyl 7-methoxy-2-(4-nitrophenyl)-4-oxo-4H-chromene-3-carboxylate] came in with an IC50 greater than 2 mM.
